From article PMC8986850, “Development and exploration of novel substituted thiosemicarbazones as inhibitors of aldose reductase via in vitro analysis and computational study” (Scientific Reports, 2022)

Columns and labels:
ALR2 = molecular target: T1, ALR2 (Bos taurus, UniProt P16116); assay: ALR2 enzyme inhibition assay (enzyme extracted from calf lenses); format: biochemical, bovine
T1 construct: from tissue; host or cells: calf eye lenses
Protocol: Compounds 3a-o were tested against ALR2 to evaluate their inhibitory potential against aldose reductase whereas selectivity was determined via performing ALR1 inhibition assay. For the enzyme inhibition assay, ALR2 and ALR1 were extracted from bovine sources (ALR2 from eyes and ALR1 from kidneys). Moreover, inhibitions studies were also carried out on the expressed ALR2 (human AKR1B1) and inhibition data for ALR2- bovine source and expressed enzyme was compared and analyzed. The protocols for enzyme extraction and expression in the bacterial system are included in the section of “Supporting information”. […] For the purpose of comparison and validation of enzyme inhibition data, these compounds were tested against human AKR1B1 (hAKR1B1) expressed in E. coli BL21 (DE3).
(§1) For the determination of enzyme activity of ALR1 and ALR2, 100 µL of reaction mixture was composed of 20 µL of buffer (100 mM sodium phosphate, pH 6.2), 30 µL of enzyme extract, 20 µL of substrate (10 mM), 20 µL of cofactor (0.1 mM of NADPH) and 10 µL of test compound (1 mM)[6],[21]. The reaction mixture without cofactor was incubated at 32°C for 10 min, then the enzymatic reaction was initiated with the addition of NADPH and monitored for 5 minutes. Similar protocols were followed for ALR1 and ALR2, however the substrate was different for each enzyme, with sodium-D-glucoronate and DL-glyceraldehyde used as the substrates for the ALR1 and ALR2 assays, respectively. […] In addition, similar protocols were adopted for human AKR1B1 that was expressed in E. coli BL21 (DE3), though the determined protein concentration was 12 µg/mL for the expressed enzyme. Detailed protocols for the preparation of ALR1, ALR2 and expressed human AKR1B1 can be found in the supporting information.
(§2) The newly synthesized N-substitute thiosemicarbazones (3a-o) were dissolved in 100% DMSO and diluted with deionized water, keeping the DMSO concentration equal to 0.1% in the assay.
The extraction of ALR2 was carried out from calf lenses via adopting method described in
in (Hayman and Kinoshita 1965) with little modification. The lenses were obtained from slaughterhouse immediately after calf’s slaughtering and stored at -20^◦C until further use. These lense (150-170g) were subjected to homogenization with about three times volume of cold distilled water and then centrifugation was carried out for the homogenate at 10,000 x g for 14 minutes for removal of insoluble lipids particles. Precipitates were discarded and supernatant layer was subjected to 40% saturation of ammonium sulphate and again centrifugation was performed with same parameters for 14 minutes and again precipitates were discarded. […] In the last step, the supernatant was subjected to 75% of saturation with ammonium sulphate to obtain ALR2. Now, the precipitates were collected instead supernatant because precipitated protein was the expected desired ALR2. The precipitated enzyme (ALR2) was redissolved in 50mM solution of sodium chloride and dialyzed for 24 hours against 50mM solution (3.5L) of NaCl. The volume was recorded before and after dialysis, then dialyzed material was treated with liquid nitrogen. The extracted ALR2 was stored in 1mL Eppendorf tube in deep freezer at -80 ^◦C till further enzymatic studies.

human AKR1B1 (hAKR1B1) = molecular target: T2, human AKR1B1 (hAKR1B1) (Homo sapiens, UniProt P15121); assay: Inhibition of expressed human AKR1B1 (E. coli BL21 (DE3)); format: biochemical; settings: human AKR1B1 expressed in E. coli BL21 (DE3), mean ± SEM of three measurements
T2 construct: made in house; host or cells: E. coli BL21 (DE3)
Protocol: For the enzyme inhibition assay, ALR2 and ALR1 were extracted from bovine sources (ALR2 from eyes and ALR1 from kidneys). Moreover, inhibitions studies were also carried out on the expressed ALR2 (human AKR1B1) and inhibition data for ALR2- bovine source and expressed enzyme was compared and analyzed. The protocols for enzyme extraction and expression in the bacterial system are included in the section of “Supporting information”. […] For the purpose of comparison and validation of enzyme inhibition data, these compounds were tested against human AKR1B1 (hAKR1B1) expressed in E. coli BL21 (DE3).
as §1, with “The reaction mixture without cofactor was incubated at 32°C for 10 min, then the enzymatic reaction was initiated with the addition of NADPH and monitored for 5 minutes.” left out
as §2
The expression plasmid for aldose reductase (pDONR223_AKR1B1_WT) was gift from Addgene in stable culture. Streaking of this culture has been carried out on LB Agar plate then incubated overnight, after growth of colonies , inoculation was performed in LB medium then incubated this medium in shaking incubator at 37 °C. After 48 hours turbidity was measured when OD=0.6 then some of bacterial growth was prepared as 50% glycerol stock. Others are subjected to plasmid isolation following method Miniprep. Meanwhile E. Coli BL21 De3 cells were made competent then transformation with extracted plasmid (AKR1B1) had been carried out heat shock method. Transformed cell ( E.Coli BL21 DE3+AKR1B1) were grown in 37 °C in shaking incubator for 48 hr. The selection for transformed cells was carried out with the help of antibiotic (spectinomycin 50µg/ml). […] For the expression of aldose reductase , E.coli BL21DE3 were induced with of IPTG(Isopropyl-d-thiogalactopyranoside)[3]. […] The expressed enzyme was stabilized by addition 10 mM Tris–HCl buffer, 0.5 mM EDTA, 5 mM β-marcaptoethanol at pH 8.0 and 20% (v/v) glycerol. Cells were lysed with lysis buffer and then precipitation with ammonium sulfate up to 80% saturation was done . the expressed enzyme was dialyzed overnight against tris buffer. Protein quantification was performed following Bradford protein assay. Aliqoutes were stored at -80 refrigerator.

[1] = DPPH radical scavenging activity; settings: 100 µM compound, methanolic DPPH 0.025 mg/mL, 517 nm
Protocol: DPPH (2,2-diphenyl-1-picrylhydrazyl) was used to explore the free radical quenching ability of 3a-o so as to provide a gauge of their antioxidant potential. The experiment was conducted according to a previously reported protocol with slight modifications. Percent free radical scavenging activities (% FRSA) of 3a-o were determined by spectrophotometric analysis at 517 nm using a homogenous mixture of methanolic DPPH (0.025 mg/mL) and a 100 µM solution of the tested compound, with ascorbic acid used as a positive control (Fig. 3).

Compound: CC(C)(C)c1cc(C=NNC(=S)Nc2ccccc2F)c(O)c(C(C)(C)C)c1 [Compound 3m, 2-(3,5-di-tert-butyl-2-hydroxybenzylidene)-N-(2-fluorophenyl)hydrazine carbothioamide]
- melting point: 180 to 182 °C
- inhibition at 100 µM (ALR2; bovine lens ALR2, 100 µM inhibitor, read-out: I (%, 100 µM) (ALR2) (converted)): 85.1%
- IC50 (ALR2; bovine lens ALR2, substrate DL-glyceraldehyde, mean ± SEM of three measurements): 1180 ± 3.4 nM
- IC50 (human AKR1B1 (hAKR1B1)): 1360 ± 4 nM
- % FRSA (percent free radical scavenging activity) [1]: 75.95%
